From ChEMBL document CHEMBL1201861, “Genomics of Drug Sensitity in Cancer screening data, Wellcome Trust Sanger Institute”

Legend:
[1] = test system: DG-75; assay: cells; assay type: functional, cell-based; conditions: Homo sapiens;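 also: growth inhibition of DG-75 cells, read out with a cell viability assay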
Description: SANGER: Inhibition of human DG-75 cell growth in a cell viability assay.

[2] = test system: HCC1806; assay: cells; assay type: functional, cell-based; conditions: Homo sapiens;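 also: growth inhibition of the cancer cell line, determined with a cell viability assay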
Description: SANGER: Inhibition of human HCC1806 cell growth in a cell viability assay.

[3] = test system: 786-0; assay: cells; assay type: functional, cell-based; conditions: Homo sapiens
Description: SANGER: Inhibition of human 786-0 cell growth in a cell viability assay.

[4] = test system: U-118-MG; assay: cells; assay type: functional, cell-based; conditions: Homo sapiens
Description: SANGER: Inhibition of human U-118-MG cell growth in a cell viability assay.

[5] = test system: OVCAR-3; assay: cells; assay type: functional, cell-based; conditions: Homo sapiens;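 also: growth inhibition of human OVCAR-3 cells, determined by a cell viability assay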
Description: SANGER: Inhibition of human OVCAR-3 cell growth in a cell viability assay.

[6] = test system: S-117; assay: cells; assay type: functional, cell-based; conditions: Homo sapiens
Description: SANGER: Inhibition of human S-117 cell growth in a cell viability assay.

[7] = test system: NCI-H2052; assay: cells; assay type: functional, cell-based; conditions: Homo sapiens;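 also: growth inhibition of NCI-H2052 cells, read out with a cell viability assay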
Description: SANGER: Inhibition of human NCI-H2052 cell growth in a cell viability assay.

[8] = test system: NCI-H1563; assay: cells; assay type: functional, cell-based; conditions: Homo sapiens;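 also: growth inhibition of human NCI-H1563 cells, read out with a cell viability assay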
Description: SANGER: Inhibition of human NCI-H1563 cell growth in a cell viability assay.

[9] = test system: HT-29; assay: cells; assay type: functional, cell-based; conditions: Homo sapiens;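 also: growth inhibition of human HT-29 cells, read out by a cell viability assay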
Description: SANGER: Inhibition of human HT-29 cell growth in a cell viability assay.

[10] = test system: A 172; assay: cells; assay type: functional, cell-based; conditions: Homo sapiens;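 also: growth inhibition of A172 cells, measured with a cell viability readout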
Description: SANGER: Inhibition of human A172 cell growth in a cell viability assay.

[11] = test system: COLO-678; assay: cells; assay type: functional, cell-based; conditions: Homo sapiens
Description: SANGER: Inhibition of human COLO-678 cell growth in a cell viability assay.

[12] = test system: SW1417; assay: cells; assay type: functional, cell-based; conditions: Homo sapiens;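 also: growth inhibition of human SW1417 cells, read out with a cell viability assay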
Description: SANGER: Inhibition of human SW1417 cell growth in a cell viability assay.

[13] = test system: 647-V; assay: cells; assay type: functional, cell-based; conditions: Homo sapiens;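 also: growth inhibition of 647-V cells, read out with a cell viability assay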
Description: SANGER: Inhibition of human 647-V cell growth in a cell viability assay.

[14] = test system: MeWo; assay: cells; assay type: functional, cell-based; conditions: Homo sapiens;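 also: growth inhibition of MeWo cells, determined by a cell viability readout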
Description: SANGER: Inhibition of human Mewo cell growth in a cell viability assay.

[15] = test system: MC-IXC; assay: cells; assay type: functional, cell-based; conditions: Homo sapiens;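 also: growth inhibition of MC-IXC cells, read out with a cell viability assay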
Description: SANGER: Inhibition of human MC-IXC cell growth in a cell viability assay.

[16] = test system: 8505C; assay: cells; assay type: functional, cell-based; conditions: Homo sapiens
Description: SANGER: Inhibition of human 8505C cell growth in a cell viability assay.

[17] = test system: SW626; assay: cells; assay type: functional, cell-based; conditions: Homo sapiens;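 also: growth inhibition of SW626 cells, measured with a cell viability assay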
Description: SANGER: Inhibition of human SW626 cell growth in a cell viability assay.

[18] = test system: LN-405; assay: cells; assay type: functional, cell-based; conditions: Homo sapiens
Description: SANGER: Inhibition of human LN-405 cell growth in a cell viability assay.

[19] = test system: Ca9-22; assay: cells; assay type: functional, cell-based; conditions: Homo sapiens;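 also: growth inhibition of Ca9-22 cells, read out with a cell viability assay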
Description: SANGER: Inhibition of human Ca9-22 cell growth in a cell viability assay.

[20] = test system: ESS-1; assay: cells; assay type: functional, cell-based; conditions: Homo sapiens;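 also: growth inhibition of human ESS-1 cells, read out by a cell viability assay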
Description: SANGER: Inhibition of human ESS-1 cell growth in a cell viability assay.

[21] = test system: NCI-H810; assay: cells; assay type: functional, cell-based; conditions: Homo sapiens;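 also: IC50 reflects inhibition of cancer cell line growth, read out with a cell viability assay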
Description: SANGER: Inhibition of human NCI-H810 cell growth in a cell viability assay.

[22] = test system: SW48; assay: cells; assay type: functional, cell-based; conditions: Homo sapiens;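 also: growth inhibition of SW48 cells, read out with a cell viability assay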
Description: SANGER: Inhibition of human SW48 cell growth in a cell viability assay.

[23] = test system: HEC-1; assay: cells; assay type: functional, cell-based; conditions: Homo sapiens;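 also: growth inhibition of the cell line, read out with a cell viability assay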
Description: SANGER: Inhibition of human HEC-1 cell growth in a cell viability assay.

[24] = test system: DOK; assay: cells; assay type: functional, cell-based; conditions: Homo sapiens;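 also: cell viability assay read-out, values reflect inhibition of cell growth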
Description: SANGER: Inhibition of human DOK cell growth in a cell viability assay.

[25] = test system: CMK; assay: cells; assay type: functional, cell-based; conditions: Homo sapiens;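 also: growth inhibition of CMK cells, read out as cell viability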
Description: SANGER: Inhibition of human CMK cell growth in a cell viability assay.

[26] = test system: LCLC-103H cell line; assay: cells; assay type: functional, cell-based; conditions: Homo sapiens
Description: SANGER: Inhibition of human LCLC-103H cell growth in a cell viability assay.

[27] = test system: KP-N-YN; assay: cells; assay type: functional, cell-based; conditions: Homo sapiens;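 also: growth inhibition of KP-N-YN cells, read out with a cell viability assay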
Description: SANGER: Inhibition of human KP-N-YN cell growth in a cell viability assay.

[28] = test system: BPH-1; assay: cells; assay type: functional, cell-based; conditions: Homo sapiens;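 also: cell viability assay measuring growth inhibition of human BPH-1 cells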
Description: SANGER: Inhibition of human BPH-1 cell growth in a cell viability assay.

[29] = test system: NCI-H460; assay: cells; assay type: functional, cell-based; conditions: Homo sapiens;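 also: cell viability assay scoring growth inhibition of human NCI-H460 cells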
Description: SANGER: Inhibition of human NCI-H460 cell growth in a cell viability assay.

[30] = test system: DK-MG; assay: cells; assay type: functional, cell-based; conditions: Homo sapiens;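 also: growth inhibition of DK-MG cells, read out with a cell viability assay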
Description: SANGER: Inhibition of human DK-MG cell growth in a cell viability assay.

[31] = test system: HGC-27; assay: cells; assay type: functional, cell-based; conditions: Homo sapiens;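 also: growth inhibition of human HGC-27 cells, read out in a cell viability assay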
Description: SANGER: Inhibition of human HGC-27 cell growth in a cell viability assay.

[32] = test system: SAS; assay: cells; assay type: functional, cell-based; conditions: Homo sapiens;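 also: growth inhibition of SAS cells, read out with a cell viability assay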
Description: SANGER: Inhibition of human SAS cell growth in a cell viability assay.

[33] = test system: SNU-16; assay: cells; assay type: functional, cell-based; conditions: Homo sapiens;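 also: growth inhibition of human SNU-16 cells, determined with a cell viability readout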
Description: SANGER: Inhibition of human NCI-SNU-16 cell growth in a cell viability assay.

[34] = test system: LP-1; assay: cells; assay type: functional, cell-based; conditions: Homo sapiens;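 also: growth inhibition of human LP-1 cells, with the read-out taken from a cell viability assay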
Description: SANGER: Inhibition of human LP-1 cell growth in a cell viability assay.

[35] = test system: A-375; assay: cells; assay type: functional, cell-based; conditions: Homo sapiens;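 also: growth inhibition of A375 cells, read out with a cell viability assay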
Description: SANGER: Inhibition of human A375 cell growth in a cell viability assay.

[36] = test system: SNU-423; assay: cells; assay type: functional, cell-based; conditions: Homo sapiens
Description: SANGER: Inhibition of human SNU-423 cell growth in a cell viability assay.

[37] = test system: BEN; assay: cells; assay type: functional, cell-based; conditions: Homo sapiens;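 also: growth inhibition of the BEN cell line, read out with a cell viability assay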
Description: SANGER: Inhibition of human BEN cell growth in a cell viability assay.

[38] = test system: NCI-H292; assay: cells; assay type: functional, cell-based; conditions: Homo sapiens;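 also: growth inhibition of NCI-H292 cells, read out with a cell viability assay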
Description: SANGER: Inhibition of human NCI-H292 cell growth in a cell viability assay.

[39] = test system: BC1 cell line; assay: SANGER: Inhibition of human BC-1 cell growth in a cell viability assay.; assay type: functional, cell-based
[40] = test system: YAPC; assay: cells; assay type: functional, cell-based; conditions: Homo sapiens;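 also: growth inhibition of YAPC cells, measured with a cell viability assay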
Description: SANGER: Inhibition of human YAPC cell growth in a cell viability assay.

[41] = test system: MEL-HO; assay: cells; assay type: functional, cell-based; conditions: Homo sapiens
Description: SANGER: Inhibition of human MEL-HO cell growth in a cell viability assay.

[42] = test system: CAL-54; assay: cells; assay type: functional, cell-based; conditions: Homo sapiens;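 also: growth inhibition of CAL-54 cells, read out by a viability measurement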
Description: SANGER: Inhibition of human CAL-54 cell growth in a cell viability assay.

[43] = test system: SCLC-21H; assay: cells; assay type: functional, cell-based; conditions: Homo sapiens;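 also: growth inhibition of cultured human SCLC-21H cells, read out with a cell viability assay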
Description: SANGER: Inhibition of human SCLC-21H cell growth in a cell viability assay.

[44] = test system: MCF7; assay: cells; assay type: functional, cell-based; conditions: Homo sapiens;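 also: growth inhibition of human MCF7 cells, read out with a cell viability assay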
Description: SANGER: Inhibition of human MCF7 cell growth in a cell viability assay.

[45] = test system: MDA-MB-361; assay: cells; assay type: functional, cell-based; conditions: Homo sapiens
[46] = test system: DMS-273; assay: cells; assay type: functional, cell-based; conditions: Homo sapiens
Description: SANGER: Inhibition of human DMS-273 cell growth in a cell viability assay.

[47] = test system: CAL-39; assay: cells; assay type: functional, cell-based; conditions: Homo sapiens;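 also: cell viability assay measuring growth inhibition of CAL-39 cells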
Description: SANGER: Inhibition of human CAL-39 cell growth in a cell viability assay.

[48] = test system: ACHN; assay: cells; assay type: functional, cell-based; conditions: Homo sapiens;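 also: cell viability read-out used to gauge how strongly growth of human ACHN cells is suppressed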
Description: SANGER: Inhibition of human ACHN cell growth in a cell viability assay.

[49] = test system: SCC-4; assay: cells; assay type: functional, cell-based; conditions: Homo sapiens;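 also: growth inhibition of human SCC-4 cells, read out as cell viability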
Description: SANGER: Inhibition of human SCC-4 cell growth in a cell viability assay.

[50] = test system: SK-HEP1; assay: cells; assay type: functional, cell-based, SK-HEP-1; conditions: Homo sapiens;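 also: cell viability readout used to quantify reduction in proliferation of human SK-HEP-1 cells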
Description: SANGER: Inhibition of human SK-HEP-1 cell growth in a cell viability assay.

[51] = test system: MDA-MB-157; assay: cells; assay type: functional, cell-based; conditions: Homo sapiens
Description: SANGER: Inhibition of human MDA-MB-157 cell growth in a cell viability assay.

[52] = test system: TGW; assay: cells; assay type: functional, cell-based; conditions: Homo sapiens;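 also: growth inhibition of human TGW cells, read out with a cell viability assay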
Description: SANGER: Inhibition of human TGW cell growth in a cell viability assay.

[53] = test system: GCT; assay: cells; assay type: functional, cell-based; conditions: Homo sapiens;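 also: GCT cell line proliferation inhibition, read out with a cell viability assay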
Description: SANGER: Inhibition of human GCT cell growth in a cell viability assay.

[54] = test system: RO82-W-1; assay: cells; assay type: functional, cell-based; conditions: Homo sapiens;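 also: growth inhibition of human RO82-W-1 cells, measured with a cell viability assay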
Description: SANGER: Inhibition of human RO82-W-1 cell growth in a cell viability assay.

[55] = test system: LOUCY; assay: cells; assay type: functional, cell-based; conditions: Homo sapiens;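 also: growth inhibition of human LOUCY cells, read out with a cell viability assay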
Description: SANGER: Inhibition of human LOUCY cell growth in a cell viability assay.

[56] = test system: TALL-1; assay: cells; assay type: functional, cell-based; conditions: Homo sapiens;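 also: growth inhibition of cultured human TALL-1 cells, read out by a cell viability assay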
Description: SANGER: Inhibition of human TALL-1 cell growth in a cell viability assay.

[57] = test system: OAW-28; assay: cells; assay type: functional, cell-based; conditions: Homo sapiens;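 also: growth inhibition of OAW-28 cells, read out with a cell viability assay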
Description: SANGER: Inhibition of human OAW-28 cell growth in a cell viability assay.

[58] = test system: RPMI 8402; assay: SANGER: Inhibition of human RPMI-8402 cell growth in a cell viability assay.; assay type: functional, cell-based
[59] = test system: NCI-H2228; assay: cells; assay type: functional, cell-based; conditions: Homo sapiens;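 also: growth inhibition of human NCI-H2228 cells, read out by a cell viability assay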
Description: SANGER: Inhibition of human NCI-H2228 cell growth in a cell viability assay.

[60] = test system: BT-20; assay: cells; assay type: functional, cell-based; conditions: Homo sapiens;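 also: cell viability assay measuring suppression of growth in human BT-20 cells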
Description: SANGER: Inhibition of human BT-20 cell growth in a cell viability assay.

[61] = test system: HPAF-II; assay: cells; assay type: functional, cell-based; conditions: Homo sapiens;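 also: growth inhibition of HPAF-II cells, read out with a cell viability assay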
Description: SANGER: Inhibition of human HPAF-II cell growth in a cell viability assay.

[62] = test system: HuP-T3; assay: cells; assay type: functional, cell-based; conditions: Homo sapiens;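 also: HuP-T3 cell growth inhibition, read out with a cell viability assay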
Description: SANGER: Inhibition of human HuP-T3 cell growth in a cell viability assay.

[63] = test system: HuO-3N1; assay: cells; assay type: functional, cell-based; conditions: Homo sapiens;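 also: cell viability readout used to measure how strongly compounds suppress proliferation of human HuO-3N1 cells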
Description: SANGER: Inhibition of human HuO-3N1 cell growth in a cell viability assay.

[64] = test system: HO-1-N-1; assay: cells; assay type: functional, cell-based; conditions: Homo sapiens
Description: SANGER: Inhibition of human HO-1-N-1 cell growth in a cell viability assay.

[65] = test system: LCLC-97TM1; assay: cells; assay type: functional, cell-based; conditions: Homo sapiens
Description: SANGER: Inhibition of human LCLC-97TM1 cell growth in a cell viability assay.

Work on `CCNC(=O)c1noc(-c2cc(C(C)C)c(O)cc2O)c1-c1ccc(CN2CCOCC2)cc1` [LUMINESPIB] yielded an IC50 [1] of over 256 nM, an IC50 [2] of 111 nM and an IC50 [3] of 6.63 nM. The IC50 [4] was 25.8 nM, the IC50 [5] was 141 nM and the IC50 [6] was 127 nM. The IC50 [7] was 104 nM, the IC50 [8] was over 256 nM and the IC50 [9] was 43.6 nM. The IC50 [10] was 39.5 nM, the IC50 [11] was over 256 nM and the IC50 [12] was over 256 nM. It also gave an IC50 [13] of 149 nM, an IC50 [14] of over 256 nM and an IC50 [15] of 17.4 nM. It also gave an IC50 [16] of 8.21 nM, an IC50 [17] of 21.2 nM and an IC50 [18] of over 256 nM. It also gave an IC50 [19] of 28 nM, an IC50 [20] of 78.7 nM and an IC50 [21] of 17.2 nM. For the same compound, the IC50 [22] was 40.3 nM, the IC50 [23] was 71.6 nM and the IC50 [24] was over 256 nM. For the same compound, the IC50 [25] was under 1 nM, the IC50 [26] was 4.3 nM and the IC50 [27] was over 256 nM. For the same compound, the IC50 [28] was 10.3 nM, the IC50 [29] was 13.4 nM and the IC50 [30] was 75.3 nM. The IC50 [31] was 17.6 nM, the IC50 [32] was 92.1 nM and the IC50 [33] was over 256 nM. The IC50 [34] was over 256 nM, the IC50 [35] was 21.7 nM and the IC50 [36] was 10.5 nM. It also gave an IC50 [37] of 116 nM, an IC50 [38] of 17.1 nM and an IC50 [39] of 33.7 nM. For the same compound, the IC50 [40] was over 256 nM, the IC50 [41] was 16.4 nM and the IC50 [42] was over 256 nM. The IC50 [43] was over 256 nM, the IC50 [44] was 3.35 nM and the IC50 [45] was 58.7 nM. For the same compound, the IC50 [46] was 34.8 nM, the IC50 [47] was 14.2 nM and the IC50 [48] was 23.5 nM. The IC50 [49] was 28.1 nM, the IC50 [50] was 3.36 nM and the IC50 [51] was over 256 nM. It also gave an IC50 [52] of 165 nM, an IC50 [53] of 41.6 nM and an IC50 [54] of over 256 nM. For the same compound, the IC50 [55] was 5.05 nM, the IC50 [56] was over 256 nM and the IC50 [57] was over 256 nM. It also gave an IC50 [58] of over 256 nM, an IC50 [59] of 10.6 nM and an IC50 [60] of over 256 nM. It also gave an IC50 [61] of over 256 nM, an IC50 [62] of 16.5 nM and an IC50 [63] of over 256 nM. For the same compound, the IC50 [64] was 25.5 nM and the IC50 [65] was 13 nM.
